Source: PubChem BioAssay (NCI)
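How tested: cells in 96-well plates exposed to compound for 48 hours at five concentrations. GI50 = concentration required for 50% inhibition of growth. At the TGI there is no net growth.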

Experiments:
Test in all cases: NCI-60 cell line screen, 48 h
OVCAR-5 ovarian = tested on: OVCAR-5 ovarian
SK-MEL-28 melanoma = tested on: SK-MEL-28 melanoma
HT29 colon = tested on: HT29 colon
OVCAR-3 ovarian = tested on: OVCAR-3 ovarian
SR leukemia = tested on: SR leukemia
MCF7 breast = tested on: MCF7 breast
UACC-257 melanoma = tested on: UACC-257 melanoma
SK-MEL-2 melanoma = tested on: SK-MEL-2 melanoma
ACHN renal = tested on: ACHN renal
PC-3 prostate = tested on: PC-3 prostate
NCI-H522 lung = tested on: NCI-H522 lung
A549 NSCLC = tested on: A549 NSCLC
HOP-92 NSCLC = tested on: HOP-92 NSCLC
SN12C renal = tested on: SN12C renal
LOX IMVI melanoma = tested on: LOX IMVI melanoma
K-562 leukemia = tested on: K-562 leukemia
SF-295 CNS = tested on: SF-295 CNS
SNB-75 CNS = tested on: SNB-75 CNS
KM12 colon = tested on: KM12 colon
MDA-MB-435 = tested on: MDA-MB-435
SK-OV-3 ovarian = tested on: SK-OV-3 ovarian
HCC-2998 colon = tested on: HCC-2998 colon
CAKI-1 renal = tested on: CAKI-1 renal
U251 CNS = tested on: U251 CNS
SF-539 CNS = tested on: SF-539 CNS
HOP-62 NSCLC = tested on: HOP-62 NSCLC
MDA-MB-231 breast = tested on: MDA-MB-231 breast
MOLT-4 leukemia = tested on: MOLT-4 leukemia
HCT-15 colon = tested on: HCT-15 colon
SK-MEL-5 melanoma = tested on: SK-MEL-5 melanoma
SNB-19 CNS = tested on: SNB-19 CNS
HL-60(TB) leukemia = tested on: HL-60(TB) leukemia
NCI-H226 lung = tested on: NCI-H226 lung
786-0 renal = tested on: 786-0 renal
MALME-3M melanoma = tested on: MALME-3M melanoma
OVCAR-8 ovarian = tested on: OVCAR-8 ovarian
DU-145 prostate = tested on: DU-145 prostate
HS 578T breast = tested on: HS 578T breast
NCI-H23 lung = tested on: NCI-H23 lung
HCT-116 colon = tested on: HCT-116 colon
COLO 205 colon = tested on: COLO 205 colon
RXF 393 renal = tested on: RXF 393 renal
M14 melanoma = tested on: M14 melanoma
NCI/ADR-RES ovarian = tested on: NCI/ADR-RES ovarian
RPMI-8226 leukemia = tested on: RPMI-8226 leukemia
UO-31 renal = tested on: UO-31 renal
SW-620 colon = tested on: SW-620 colon
SF-268 CNS = tested on: SF-268 CNS
EKVX NSCLC = tested on: EKVX NSCLC
OVCAR-4 ovarian = tested on: OVCAR-4 ovarian
A498 renal = tested on: A498 renal
TK-10 renal = tested on: TK-10 renal
NCI-H460 lung = tested on: NCI-H460 lung
UACC-62 melanoma = tested on: UACC-62 melanoma
CCRF-CEM leukemia = tested on: CCRF-CEM leukemia
T-47D breast = tested on: T-47D breast
IGROV1 ovarian = tested on: IGROV1 ovarian
BT-549 breast = tested on: BT-549 breast

C=CCSSc1ncnc2c1ncn2C1OC(CO)C(O)C1O (centres undefined)
GI50 (OVCAR-5 ovarian): 4.29 µM
TGI (OVCAR-5 ovarian): > 100 µM
GI50 (SK-MEL-28 melanoma): 36.5 µM
TGI (SK-MEL-28 melanoma): > 100 µM
GI50 (HT29 colon): 2.7 µM
TGI (HT29 colon): > 93.6 µM
GI50 (OVCAR-3 ovarian): 0.829 µM
TGI (OVCAR-3 ovarian): > 32.7 µM
GI50 (SR leukemia): 0.205 µM
TGI (SR leukemia): 3.73 µM
GI50 (MCF7 breast): 0.567 µM
TGI (MCF7 breast): 11.6 µM
GI50 (UACC-257 melanoma): 6.79 µM
TGI (UACC-257 melanoma): > 86.1 µM
GI50 (SK-MEL-2 melanoma): 6.25 µM
TGI (SK-MEL-2 melanoma): > 41.9 µM
GI50 (ACHN renal): 3.34 µM
TGI (ACHN renal): > 100 µM
GI50 (PC-3 prostate): 2.28 µM
TGI (PC-3 prostate): > 22.4 µM
GI50 (NCI-H522 lung): 1.34 µM
TGI (NCI-H522 lung): 10.7 µM
GI50 (A549 NSCLC): 21.9 µM
TGI (A549 NSCLC): > 100 µM
GI50 (HOP-92 NSCLC): 0.222 µM
TGI (HOP-92 NSCLC): 4.98 µM
GI50 (SN12C renal): 11.3 µM
TGI (SN12C renal): > 100 µM
GI50 (LOX IMVI melanoma): 0.37 µM
TGI (LOX IMVI melanoma): > 78.6 µM
GI50 (K-562 leukemia): 1.2 µM
TGI (K-562 leukemia): > 39.4 µM
GI50 (SF-295 CNS): 2.58 µM
TGI (SF-295 CNS): > 100 µM
GI50 (SNB-75 CNS): 0.731 µM
TGI (SNB-75 CNS): 96.9 µM
GI50 (KM12 colon): 3.24 µM
TGI (KM12 colon): > 39.9 µM
GI50 (MDA-MB-435): 2.38 µM
TGI (MDA-MB-435): > 100 µM
GI50 (SK-OV-3 ovarian): 0.501 µM
TGI (SK-OV-3 ovarian): > 87.2 µM
GI50 (HCC-2998 colon): 3.06 µM
TGI (HCC-2998 colon): 60 µM
GI50 (CAKI-1 renal): 0.799 µM
TGI (CAKI-1 renal): > 68.8 µM
GI50 (U251 CNS): 13.5 µM
TGI (U251 CNS): > 100 µM
GI50 (SF-539 CNS): 2.28 µM
TGI (SF-539 CNS): 21 µM
GI50 (HOP-62 NSCLC): 1.78 µM
TGI (HOP-62 NSCLC): > 100 µM
GI50 (MDA-MB-231 breast): 3.76 µM
TGI (MDA-MB-231 breast): > 100 µM
GI50 (MOLT-4 leukemia): 1.54 µM
TGI (MOLT-4 leukemia): 6.75 µM
GI50 (HCT-15 colon): 3.28 µM
TGI (HCT-15 colon): > 100 µM
GI50 (SK-MEL-5 melanoma): 3.43 µM
TGI (SK-MEL-5 melanoma): > 50.7 µM
GI50 (SNB-19 CNS): > 55.7 µM
TGI (SNB-19 CNS): > 100 µM
GI50 (HL-60(TB) leukemia): 3.27 µM
TGI (HL-60(TB) leukemia): 19.9 µM
GI50 (NCI-H226 lung): 4.14 µM
TGI (NCI-H226 lung): > 100 µM
GI50 (786-0 renal): 2.35 µM
TGI (786-0 renal): > 86.9 µM
GI50 (MALME-3M melanoma): 2.48 µM
TGI (MALME-3M melanoma): > 47.4 µM
GI50 (OVCAR-8 ovarian): 2.87 µM
TGI (OVCAR-8 ovarian): > 42.9 µM
GI50 (DU-145 prostate): 1.24 µM
TGI (DU-145 prostate): > 48.1 µM
GI50 (HS 578T breast): 14.5 µM
TGI (HS 578T breast): > 93.5 µM
GI50 (NCI-H23 lung): 3.94 µM
TGI (NCI-H23 lung): > 74.2 µM
GI50 (HCT-116 colon): 2.96 µM
TGI (HCT-116 colon): > 45.4 µM
GI50 (COLO 205 colon): 2.74 µM
TGI (COLO 205 colon): 13.1 µM
GI50 (RXF 393 renal): 6.93 µM
TGI (RXF 393 renal): 27.1 µM
GI50 (M14 melanoma): 0.536 µM
TGI (M14 melanoma): > 100 µM
GI50 (NCI/ADR-RES ovarian): 3.86 µM
TGI (NCI/ADR-RES ovarian): > 100 µM
GI50 (RPMI-8226 leukemia): 1.15 µM
TGI (RPMI-8226 leukemia): 6.47 µM
GI50 (UO-31 renal): 3.63 µM
TGI (UO-31 renal): 16.8 µM
GI50 (SW-620 colon): 4.07 µM
TGI (SW-620 colon): 23.2 µM
GI50 (SF-268 CNS): 5.05 µM
TGI (SF-268 CNS): > 58.1 µM
GI50 (EKVX NSCLC): 69.3 µM
TGI (EKVX NSCLC): > 100 µM
GI50 (OVCAR-4 ovarian): 0.782 µM
TGI (OVCAR-4 ovarian): > 100 µM
GI50 (A498 renal): 39.3 µM
TGI (A498 renal): > 100 µM
GI50 (TK-10 renal): 0.598 µM
TGI (TK-10 renal): > 42.3 µM
GI50 (NCI-H460 lung): 4.49 µM
TGI (NCI-H460 lung): > 100 µM
GI50 (UACC-62 melanoma): 1.64 µM
TGI (UACC-62 melanoma): > 100 µM
GI50 (CCRF-CEM leukemia): 0.46 µM
TGI (CCRF-CEM leukemia): 4.5 µM
GI50 (T-47D breast): 0.976 µM
TGI (T-47D breast): > 100 µM
GI50 (IGROV1 ovarian): 0.0257 µM
TGI (IGROV1 ovarian): 0.644 µM
GI50 (BT-549 breast): 3.67 µM
TGI (BT-549 breast): > 100 µM

O=C(O)C1=NN(c2ccc(S(=O)(=O)O)cc2)C2(C1)SCC(=O)N2c1nc2ccccc2s1 (centres undefined)
TGI (OVCAR-5 ovarian): > 100 µM
TGI (SK-MEL-28 melanoma): > 100 µM
TGI (HT29 colon): > 100 µM
TGI (OVCAR-3 ovarian): > 100 µM
TGI (SR leukemia): > 100 µM
TGI (MCF7 breast): > 100 µM
TGI (UACC-257 melanoma): > 100 µM
TGI (SK-MEL-2 melanoma): > 100 µM
TGI (ACHN renal): > 100 µM
TGI (PC-3 prostate): > 100 µM
TGI (NCI-H522 lung): > 100 µM
TGI (A549 NSCLC): > 100 µM
TGI (HOP-92 NSCLC): > 100 µM
TGI (SN12C renal): > 100 µM
TGI (LOX IMVI melanoma): > 100 µM
TGI (K-562 leukemia): > 100 µM
TGI (SF-295 CNS): > 100 µM
TGI (SNB-75 CNS): > 100 µM
TGI (KM12 colon): > 100 µM
TGI (MDA-MB-435): > 100 µM
TGI (SK-OV-3 ovarian): > 100 µM
TGI (HCC-2998 colon): > 100 µM
TGI (CAKI-1 renal): > 100 µM
TGI (U251 CNS): > 100 µM
TGI (SF-539 CNS): > 100 µM
TGI (HOP-62 NSCLC): > 100 µM
TGI (MDA-MB-231 breast): > 100 µM
TGI (MOLT-4 leukemia): > 100 µM
TGI (HCT-15 colon): > 100 µM
TGI (SK-MEL-5 melanoma): > 100 µM
TGI (SNB-19 CNS): > 100 µM
TGI (HL-60(TB) leukemia): > 100 µM
TGI (NCI-H226 lung): > 100 µM
TGI (786-0 renal): > 100 µM
TGI (MALME-3M melanoma): > 100 µM
TGI (OVCAR-8 ovarian): > 100 µM
TGI (DU-145 prostate): > 100 µM
TGI (HS 578T breast): > 100 µM
TGI (NCI-H23 lung): > 100 µM
TGI (HCT-116 colon): > 100 µM
TGI (COLO 205 colon): > 100 µM
TGI (RXF 393 renal): > 100 µM
TGI (M14 melanoma): > 100 µM
TGI (NCI/ADR-RES ovarian): > 100 µM
TGI (RPMI-8226 leukemia): > 100 µM
TGI (UO-31 renal): > 100 µM
TGI (SW-620 colon): > 100 µM
TGI (SF-268 CNS): > 100 µM
TGI (EKVX NSCLC): > 100 µM
TGI (OVCAR-4 ovarian): > 100 µM
TGI (A498 renal): > 100 µM
TGI (TK-10 renal): > 100 µM
TGI (NCI-H460 lung): > 100 µM
TGI (UACC-62 melanoma): > 100 µM
TGI (CCRF-CEM leukemia): > 100 µM
TGI (T-47D breast): > 100 µM
TGI (IGROV1 ovarian): > 100 µM
TGI (BT-549 breast): > 100 µM
